# Measurements: article PMC6983046, “Meroterpenoids from the Fungus Ganoderma sinensis and First Absolute Configuration Clarification of Zizhine H” (Molecules, 2019)
# Tests used:
# [1] = test system: BGC-823: human gastric cancer cells; assay: Cell viability (CCK8) assay, BGC-823; format: cell-based; conditions: BGC-823 cells; for IC50: CCK8, 48 h; for cytotoxic activity (cells sensitive to compound), BGC-823: result in words
# Experimental: (§1) All cell lines were purchased from the Cell Bank of China Science Academy (Shanghai, China) and maintained in Dulbecco’s Modified Eagle Medium (DMEM) supplemented with 10% fetal bovine serum and 100 U/mL penicillin-streptomycin, and incubated at 37 °C in an atmosphere of 5% CO2. Cell viability was evaluated by the CCK8 assay kit (Dojindo Laboratories, Tokyo, Japan) according to the manufacturer’s instructions. Exponentially growing cells were seeded at 2–8 × 10^3 cells per well in 96-well culture plates for 24 h. Cells were exposed to increasing concentrations (0–80 μM) of 4, 5, 6, or 5-FU for 48 h. The equal volume of DMSO was used as the solvent control. CCK8 solution (10 μL) was added to each well and incubated for another 1–4 h. Light absorbance of the solution was measured at 450 nm (Epoch 2; BioTek Instruments, Inc. Winooski, VT, USA). The IC50 values were calculated using the GraphPad prism 7 and analyzed by fitting a curve using nonlinear regression. page 53: Figure S63. The calculated and the experimental ECD spectra of 5 and 6. Figure S64. Cytotoxic effects of compound-4,compound-5, compound-6 and 5-FU on human cancer cells (A, B, C) and normal cells (D) Cells were treated with various concentrations of compound-4,compound-5, compound-6 and 5-FU for 48 h. Cytotoxic effect of the compounds was determined by CCK8 assay. Percentages of viable cells were calculated by comparing treated and solvent control cells. Data are the mean ± S.D. of three replicates. […]
# [2] = test system: A549: human lung cancer cells; assay: Cell viability (CCK8) assay, A549; format: cell-based; conditions: for IC50: CCK8, 48 h
# Experimental: as §1
# [3] = test system: KYSE30: human esophageal cancer cells; assay: Cell viability (CCK8) assay, KYSE30; format: cell-based; conditions: for cytotoxic activity (cells sensitive to compound), KYSE30: result in words
# Experimental: as §1
# [4] = Cell viability (CCK8) assay, HDF normal cells; format: cell-based, human; conditions: human, HDF cells (normal human embryonic lung fibroblasts), CCK8, 48 h
# Experimental: as §1
# [5] = test system: HDF: normal human embryonic lung fibroblasts; assay: Cell viability (CCK8) assay, HDF normal cells; format: cell-based; conditions: CCK8, 48 h
# Experimental: as §1
# [6] = Homo sapiens, KYSE-30, CCK8, 48 h
SMILES,IC50 ([1]; Homo sapiens) [µM],"IC50 ([2]; Homo sapiens, A549, 48 h) [µM]","IC50 [3, 6] [µM]",IC50 at 48 h [4] [µM],IC50 [2] [µM],"cytotoxic activity (cells sensitive to compound), A549 ([2]; result in words)","cytotoxic activity (cells sensitive to compound), BGC-823 [1]","cytotoxic activity (cells sensitive to compound), KYSE30 [3]",IC50 [1] [µM],"IC50 ([3]; CCK8, 48 h) [µM]",IC50 [5] [µM]
"CC(=CCCC1=CCC[C@](CC(=O)c2cc(O)ccc2O)(C(=O)O)OC1)CO [(+)-1, (S,E)-2-(2-(2,5-dihydroxyphenyl)-2-oxoethyl)-6-(5-hydroxy-4-methylpent-3-en-1-yl)-2,3,4,7-tetrahydrooxepine-2-carboxylic acid]",> 160,> 160,> 160,> 160,–,–,–,–,–,–,–
"C/C(=C\CCC1=CCC[C@](CC(=O)c2cc(O)ccc2O)(C(=O)O)OC1)COC(=O)/C=C/c1ccc(O)cc1 [(+)-2, (S)-2-(2-(2,5-dihydroxyphenyl)-2-oxoethyl)-6-((E)-5-(((E)-3-(4-hydroxyphenyl)acryloyl)oxy)-4-methylpent-3-en-1-yl)-2,3,4,7-tetrahydrooxepine-2-carboxylic acid]",> 160,> 160,> 160,> 160,–,–,–,–,–,–,–
"CC(=CCCC1=CCC[C@@](CC(=O)c2cc(O)ccc2O)(C(=O)O)OC1)CO [(−)-1, (R,E)-2-(2-(2,5-dihydroxyphenyl)-2-oxoethyl)-6-(5-hydroxy-4-methylpent-3-en-1-yl)-2,3,4,7-tetrahydrooxepine-2-carboxylic acid]",> 160,> 160,> 160,> 160,–,–,–,–,–,–,–
"C/C(=C\CCC1=CCC[C@@](CC(=O)c2cc(O)ccc2O)(C(=O)O)OC1)COC(=O)/C=C/c1ccc(O)cc1 [(−)-2, (R)-2-(2-(2,5-dihydroxyphenyl)-2-oxoethyl)-6-((E)-5-(((E)-3-(4-hydroxyphenyl)acryloyl)oxy)-4-methylpent-3-en-1-yl)-2,3,4,7-tetrahydrooxepine-2-carboxylic acid]",> 160,> 160,> 160,> 160,–,–,–,–,–,–,–
"C/C(=C\CC/C(=C/CC/C(=C/Cc1cc(O)ccc1O)C(=O)O)CO)COC(=O)/C=C/c1ccc(O)cc1 [Compound 3, (2Z,5Z,9E)-2-(2-(2,5-dihydroxyphenyl)ethylidene)-6-(hydroxymethyl)-11-(((E)-3-(4-hydroxyphenyl)acryloyl)oxy)-10-methylundeca-5,9-dienoic acid]",> 160,> 160,> 160,> 160,–,–,–,–,–,–,–
"COC(=O)/C(=C\C(=O)c1cc(O)ccc1O)CC/C=C(\CO)CC/C=C(\C)COC(=O)/C=C/c1ccc(O)cc1 [Compound 4, (2Z,5Z,9E)-methyl 2-(2-(2,5-dihydroxyphenyl)-2-oxoethylidene)-6-(hydroxymethyl)-11-(((E)-3-(4-hydroxyphenyl)acryloyl)oxy)-10-methylundeca-5,9-dienoate]",> 160,63.4 to 80.8,> 160,> 160,72.1 ± 8.7,sensitive,–,–,–,–,–
"C/C(=C\C[C@H](O)/C(=C/CCC1=C[C@H](c2cc(O)ccc2O)OC1=O)CO)COC(=O)/C=C/c1ccc(O)cc1 [Compound 5, (E)-(S,2E,6E)-9-((R)-5-(2,5-dihydroxyphenyl)-2-oxo-2,5-dihydrofuran-3-yl)-5-hydroxy-6-(hydroxymethyl)-2-methylnona-2,6-dien-1-yl 3-(4-hydroxyphenyl)acrylate]",59.2 ± 2.73,> 160,76.3 ± 1.93,> 160,–,–,sensitive,sensitive,–,–,–
"O=c1[nH]cc(F)c(=O)[nH]1 [Compound 5-FU, reference compound]",–,–,–,–,35 ± 2.42,–,–,–,37.7 ± 1.87,8.43 ± 0.19,51.1 ± 2.43
"C/C(=C\C[C@H](O)/C(=C/CCC1=C[C@@H](c2cc(O)ccc2O)OC1=O)CO)COC(=O)/C=C/c1ccc(O)cc1 [Compound 6, (E)-(S,2E,6E)-9-((S)-5-(2,5-dihydroxyphenyl)-2-oxo-2,5-dihydrofuran-3-yl)-5-hydroxy-6-(hydroxymethyl)-2-methylnona-2,6-dien-1-yl 3-(4-hydroxyphenyl)acrylate]",64.25 ± 0.37,> 160,85.4 ± 2.82,> 160,–,–,sensitive,sensitive,–,–,–
"C/C(=C/CC/C(=C/C(=O)c1cc(O)ccc1O)C(=O)O)CO [Compound 7, (2Z,5Z)-2-(2-(2,5-dihydroxyphenyl)-2-oxoethylidene)-7-hydroxy-6-methylhept-5-enoic acid]",> 160,> 160,> 160,> 160,–,–,–,–,–,–,–
